The text below walks through data of ChEMBL document CHEMBL1201862, “PubChem BioAssay data set” (2004).

Assay in all cases: NCI anticancer screen, dose series, 48 h
Test [1] relates to OVCAR-4.
The subject of test [2] is TK-10.
For test [3], the system named is PC-3.
The subject of test [4] is NCI/ADR-RES.
The subject of test [5] is CCRF-CEM.
The subject of test [6] is HOP-62.
In test [7] the test system is T47D.
In test [8] the test system is SR.
In test [9] the test system is M14.
Test [10] relates to SF-539.
In test [11] the test system is MCF7.
In test [12] the test system is MDA-MB-435.
In test [13] the test system is 786-0.
Test [14] concerns SN12C.

Molecules are shown by their SMILES.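 Exposure lasted 48 hours, with cells grown in 96-well plates and compounds tested at five concentrations. Abbreviation: GI50, concentration required for 50% inhibition of growth.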 Calls of active or inactive are those of the source. Rule as the data show it: active = GI50 up to about 1.1 µM and inactive = higher.

Regarding `CCCS(=O)(=O)O`, the GI50 in test [1], in test [2], in test [3], in test [4], in test [5] and in [6] was > 100 µM (inactive) throughout. The GI50 in test [7], in test [8], in test [9], in test [10], in test [11] and in [12] was > 100 µM (inactive) each time.
As to `Cc1nnc(Nc2ccc(Cl)cc2)o1`, the GI50 in test [1], in [2], in [3], in test [4], in test [5] and in [6] was > 10 µM (inactive) throughout. Moreover, the GI50 in test [7], in test [13], in test [9], in [14], in test [10] and in test [11] was > 10 µM (inactive) each time. Moreover, the GI50 in test [12] was > 10 µM (inactive).
Consider `COc1ccc(C(CC(=O)c2ccc(O)cc2)C(C(=O)c2ccc(O)cc2)C(c2ccc(OC)cc2)C2C(=O)NC(=S)NC2=O)cc1` (configuration not stated), for which the GI50 is 18.8 µM (inactive) in test [1]; 29.3 µM (inactive) in [2]; 21.8 µM (inactive) in test [3]; 17.9 µM (inactive) in test [4]; 11.1 µM (inactive) in [5]; 26.1 µM (inactive) in test [6]. Moreover, the GI50 in [13] was 20.6 µM (inactive); in [8] it was 38 µM (inactive); in test [9], 20.8 µM (inactive); in test [14], 24.7 µM (inactive); in test [11] it was 14.5 µM (inactive); in [12] it was 25.5 µM (inactive).
Regarding `COC1OC(CS(=O)(=O)O)C(O)C(O)C1O` (configuration not stated), the GI50 in [1], in [2], in test [3], in test [4], in test [5] and in test [6] was > 100 µM (inactive) throughout. Besides, the GI50 in test [7], in [8], in [9], in test [14], in test [11] and in test [12] was > 100 µM (inactive) in each case.
In the case of `CC1C(=O)N(c2ccccc2)NC12CCCc1ccccc12` (configuration not stated), the GI50 in test [1], in [2], in test [3], in test [4], in [5] and in [6] was > 100 µM (inactive) in each case. In addition, the GI50 in test [7], in test [8], in test [9], in [14], in test [10] and in test [11] was > 100 µM (inactive) in each case. For the same compound, the GI50 in test [12] was > 100 µM (inactive).
Take `O=C(NC1C/C(=N/O)c2c(Br)sc(Br)c21)C(F)(F)F` (configuration not stated): the GI50 in test [1] was 13.8 µM (inactive); in [2], 36.3 µM (inactive); in test [3] it was 13.9 µM (inactive); in test [4], 19.3 µM (inactive); in test [5] it was 20.2 µM (inactive); in test [7], 20.7 µM (inactive). Moreover, the GI50 in test [13] is 18.2 µM (inactive); in test [9] it was 36.2 µM (inactive); in test [14], 21.2 µM (inactive); in test [10], 17.3 µM (inactive); in [11], 37.6 µM (inactive); in test [12], 47.2 µM (inactive).
Consider `C=CC(=O)NC(O)(C(=O)OCC)C(F)(F)F` (configuration not stated), for which the GI50 in test [1], in test [2], in test [3], in test [4], in [5] and in test [6] was > 100 µM (inactive) in each case. The GI50 in test [7] is > 100 µM (inactive); in [8], 64.4 µM (inactive); in test [9], > 100 µM (inactive); in test [14] it was > 100 µM (inactive); in [10], > 100 µM (inactive); in test [11] it was > 100 µM (inactive). Besides, the GI50 in test [12] was > 100 µM (inactive).
Regarding `Cc1[nH]c2ncn(/N=C/c3ccccc3O)c(=N)c2c1Cc1ccccc1`, the GI50 in test [1] is 63.5 µM (inactive); in test [2], 56.9 µM (inactive); in [3], 17.6 µM (inactive); in test [4] it was 40.6 µM (inactive); in test [5], 39.4 µM (inactive); in test [6] it was > 100 µM (inactive). Also, the GI50 was > 100 µM (inactive) in [7]; 81.8 µM (inactive) in test [13]; 58.6 µM (inactive) in test [9]; 67 µM (inactive) in test [14]; 30 µM (inactive) in [10]; 33 µM (inactive) in test [11]. Further, in [12], the GI50 was 18.5 µM (inactive).
For `COc1cc([C@@H]2c3cc4c(cc3[C@@H](c3c(O)cc(O)c5c3O[C@H](c3ccc(O)c(O)c3)[C@@H](O)C5)[C@H]3COC(=O)[C@H]23)OCO4)cc(OC)c1O`, the GI50 was > 100 µM (inactive) in [1]; > 100 µM (inactive) in test [2]; > 100 µM (inactive) in test [3]; > 100 µM (inactive) in test [4]; 63.2 µM (inactive) in test [5]; > 100 µM (inactive) in [6]. The GI50 is > 100 µM (inactive) in test [7]; > 100 µM (inactive) in test [13]; > 100 µM (inactive) in [9]; > 100 µM (inactive) in test [14]; 58.7 µM (inactive) in [10]; > 100 µM (inactive) in [11]. In addition, in [12], the GI50 is > 100 µM (inactive).
In the case of `CO[C@H]1C=C[C@@]23c4cc5c(cc4CO[C@]2(O)CN(C)[C@H]3C1)OCO5`, the GI50 in test [1], in test [2], in test [3], in test [4], in [5] and in [7] was > 100 µM (inactive) throughout. Also, the GI50 in test [13], in test [9], in test [14], in [10], in test [11] and in test [12] was > 100 µM (inactive) each time.
Regarding `CC(SC(=S)N1CCOCC1)C(=O)Nc1nnc(-c2ccc(Cl)cc2)o1` (configuration not stated), the GI50 in test [1] is 26.7 µM (inactive); in [2], 79.8 µM (inactive); in test [3], 38.5 µM (inactive); in [4], 23.6 µM (inactive); in [5], < 0.01 µM (active); in [6], 52 µM (inactive). The GI50 was 51.3 µM (inactive) in test [7]; 27.9 µM (inactive) in [13]; 8.07 µM (inactive) in test [8]; 36 µM (inactive) in [9]; 36.1 µM (inactive) in test [14]; 74.5 µM (inactive) in test [10]. In addition, the GI50 is 32.3 µM (inactive) in test [11] and 40.2 µM (inactive) in test [12].
Regarding `Cc1ccc(NC(=S)NNC(=O)c2cc(-c3ccccc3)nc3ccccc23)cc1C`, the GI50 was 18.1 µM (inactive) in [1]; 23.7 µM (inactive) in [2]; 18.7 µM (inactive) in [3]; 23 µM (inactive) in test [4]; 27.5 µM (inactive) in test [5]; 22 µM (inactive) in [6]. The GI50 in [7] was 0.853 µM (active); in [13], 16.3 µM (inactive); in test [8] it was 14.6 µM (inactive); in test [9] it was 15.5 µM (inactive); in [14], 17.6 µM (inactive); in test [10], 21.2 µM (inactive). Also, the GI50 was 12.4 µM (inactive) in test [11] and 24 µM (inactive) in [12].
Turning to `CCN1CCC(O)(/C=C/c2ccc(C)cc2)C(C(=O)/C=C/c2ccc(C)cc2)C1` (configuration not stated), the GI50 is 9.82 µM (inactive) in test [1]; 5.45 µM (inactive) in [2]; 4.49 µM (inactive) in [3]; 2.61 µM (inactive) in test [4]; 1.73 µM (inactive) in [5]; 12.5 µM (inactive) in test [6]. Besides, the GI50 in [7] was 2.82 µM (inactive); in [13], 2.08 µM (inactive); in [8] it was 2.37 µM (inactive); in test [9], 2.83 µM (inactive); in test [14], 7.69 µM (inactive); in test [10], 3.61 µM (inactive). Further, the GI50 in test [11] is 2.36 µM (inactive); in test [12], 2.93 µM (inactive).
Consider `CN(C)c1ccc(/C=C2/SC(=S)NC2=O)cc1`, for which the GI50 in test [1] is > 100 µM (inactive); in test [2] it was 21.2 µM (inactive); in test [3], > 100 µM (inactive); in test [4], > 100 µM (inactive); in test [5] it was > 100 µM (inactive); in test [6], 52.2 µM (inactive). The GI50 in [7], in test [13], in [8], in [9], in test [14] and in test [10] was > 100 µM (inactive) each time. Besides, the GI50 in test [11] and in test [12] was > 100 µM (inactive) in each case.
As for `C/C(=C1\N=C(c2ccccc2)OC1=O)c1ccccc1`, the GI50 in test [1], in [2], in test [3], in test [5], in test [6] and in [7] was > 100 µM (inactive) each time. Further, the GI50 in test [8], in [9], in test [10], in test [11] and in test [12] was > 100 µM (inactive) each time.
